# “Also recorded” adds a separate entry of the source.
# B1: CNTF: ciliary neurotrophic factor (protein, UniProt P26441 1-200, looked up)
# Ciliary neurotrophic factor: MAFTEHSPLTPHRRDLCSRSIWLARKIRSDLTALTESYVKHQGLNKNINLDSADGMPVASTDQWSELTEAERLQENLQAYRTFHVLLARLLEDQQVHFTPTEGDFHQAIHTLLLQVAAFAYQIEELMILLEYKIPRNEADGMPINVGDGGLFEKKLWGLKVLQELSQWTVRSIHDLRFISSHQTGIPARGSHYIANNKKM
# B2: BDNF: brain-derived neurotrophic factor (protein, UniProt P23560 19-247, looked up)
# Neurotrophic factor BDNF …: APMKEANIRGQGGLAYPGVRTHGTLESVNGPKAGSRGLTSLADTFEHVIEELLDEDQKVRPNEENNKDADLYTSRVMLSSQVPLEPPLLFLLEEYKNYLDAANMSMRVRRHSDPARRGELSVCDSISEWVTAADKKTAVDMSGGTVTVLEKVPVSKGQLKQYFYETKCNPMGYTKEGCRGIDKRHWNSQCRTTQSYVRALTMDSKKRIGWRFIRIDTSCVCTLTIKRGR
# Columns and labels:
# [1] = system: DRG/Schwann cell co-culture; experiment: DRG/SC three-dimensional co-culture: neurite growth and myelin formation (immunohistochemistry, confocal); format: cell-based, rat
# From the text: The dual hydrogel culture system was fabricated using a digital projection photolithography, as described above. A schematic of the process is seen in FIG. 13. In brief, a photolithography apparatus comprised of a collimated UV light source (OmniCure 1000 with 320-500 nm filter, EXFO, Quebec, Canada) and a visible light source (SOLA light engine with […] filter, Lumencor, Oreg., USA), a digital micromirror device (DMD) (Discovery™ 3000, Texas Instruments, Dallas, Tex.) as a dynamic photomask and a 2× Plan Fluor objective lens (Nikon Instruments, Tokyo, Japan) were utilized to irradiate the photocurable hydrogel solution that was contained in a permeable cell culture insert with 0.4 μm pore size. The inserts were either collagen-coated PTFE Transwell® Permeable Support or Transwell™ Clear Polyester Membrane Inserts (Corning Inc., Corning, N.Y., USA) to investigate the influence of collagenated substrates on SC/neuron incorporation. The dual hydrogel system consists of two compartments: a cell permissive section that contains neurons and a cell restrictive section that acts as a hydrogel mold. In order to make the cell restrictive section, a solution of 10% (w/v) PEG-diacrylate (Mn 1000; Polysciences Inc., Warrington, Pa.) and 0.5% (w/v) Irgacure 2959 in PBS was irradiated with 85 mW/cm2 UV light as measured by a radiometer (306 UV Powermeter, Optical Associates, San Jose, Calif.), for 38 seconds to make a PEG micromold, shown in FIG. 13. The cell culture insert was treated with filtered Rain-X® Original Glass Treatment (RainX, Houston, Tex.) prior to addition of the gel solution in order to avoid meniscus behavior. 0.5 ml of solution was added to each 6-well plate insert. Addition of 0.5 ml solution results in a gel thickness of 480 μm. Hydrogel constructs were washed in DPBS with 1% antibiotic-antimycotic additive to inhibit contamination.
# As the first step of the co-culture, the primary tissue culture was performed. The PEG constructs were prepared and immersed in the adhesion media and incubated (37° C., 5% C02) overnight prior to the tissue culture. The adhesion media was comprised of Neurobasal medium supplemented with B27 (2% v/v), L-glutamine (0.25% v/v), nerve growth factor (NGF) (0.02 μg/ml), fetal bovine serum (FBS) (10% v/v/) and penicillin/streptomycin (1% v/v) (all from Life Technologies, CA). The constructs were then cultured with Long Evans rat embryo dorsal root ganglion (DRG) tissue, in keeping with the guidelines of the Institutional Animal Care and Use Committee. The DRGs were isolated from embryonic day 15 rat embryos and trimmed prior to the culture. A single DRG explant was placed in each construct. The DRGs were then incubated in fresh adhesion media overnight to allow the tissue to adhere to the insert
# The SCs were dispersed in 50% MeDex solution in SC medium as described above to reach a cell count of 20×10^6 cell/mL. In order to achieve an evenly distributed single cell solution, the gel mixture was pipetted up and down vigorously. The adhesion medium was aspirated from the channels gently to avoid disturbing the adhered DRGs and 2 μL of the MeDex single cell solution was added to each PEG micromold. A negative photomask was loaded on the DMD and the gel solution in the channel was crosslinked with 85 mW/cm^2 visible light as measured by a radiometer (306 UV Powermeter, Optical Associates, San Jose, Calif.) after 30 seconds of irradiation using a visible light source (SOLA light engine with 375-650 nm filter, Lumencor, Oreg., USA). The constructs were gently washed using the wash buffer described above three times.
# In order to understand the influence of various media regimens on the behavior of DRGs and SCs in a three-dimensional co-culture, two different culture systems were applied. The culture systems are described in Table 2. Culture System 1 has two phases where Media 1 (10 days) and 2 (15 days) are applied in that order. […]
# [2] = system: DRG explants in dual hydrogel constructs; format: cell-based, rat; conditions: for response duration before (t1-t5) vs after (t16-t20) drug wash-in / response amplitude before (t1-t5) vs after (t16-t20) drug wash-in: 20 μM DNQX and 50 μM APV applied together; for response duration before (t1-t5) vs after (t16-t20) drug wash-in: n=4, at half-peak; for response amplitude before (t1-t5) vs after (t16-t20) drug wash-in: n=4, peak-to-peak
# [3] = system: neuronal cell death in vitro; conditions: cited from earlier work
# DRG neurites = experiment: DRG neurite growth toward a factor diffusing from a reservoir in the hydrogel construct; format: cell-based; conditions: NGF vs BSA diffusing from a reservoir, FIG. 28
# Retinal explants = experiment: Retinal explant culture in 3D micropatterned hydrogels; format: cell-based, rat; conditions: neurobasal Sato medium supplemented with the factor, one week, β-III tubulin
# Protocol: Work and experimental data for the dorsal root ganglia model is presented in the present disclosure. For a central nervous system model, the growth of retinal explants has also been explored. FIGS. 27A-27B depict a culture of retinal (CNS) tissue. Retinal explants from embryonic rats were cultured within 3D micropatterned hydrogels in “neurobasal Sato” medium supplemented with either ciliary neurotrophic factor CNTF ([…]) or brain-derived neurotrophic factor BDNF ([…]).
molecule,measurement,setting,value
"O=C1O[C@H]([C@@H](O)CO)C(O)=C1O [AA, L-ascorbic acid]",amount of myelin,"[1]; 25 days of media containing AA (NCol-25, Col-25)",considerable increase
same,ratio of myelin to neuronal growth (percentage of myelin),"[1]; longer exposures to AA, MBP, MAG, PO stains",increases
"N[C@H](CCCP(=O)(O)O)C(=O)O [APV, (2R)-amino-5-phosphonopentanoate]",response duration before (t1-t5) vs after (t16-t20) drug wash-in,[2],no statistically significant difference; also recorded: no marked change
same,response amplitude before (t1-t5) vs after (t16-t20) drug wash-in,[2],no statistically significant difference; also recorded: no marked change
CC(C)C[C@H](NC(=O)[C@H](Cc1ccccc1)NC(=O)c1cnccn1)B(O)O [Bortezomib],Neurotoxic dose,[3],0.02 µM
"O=C1N=c2cc([N+](=O)[O-])c([N+](=O)[O-])cc2=NC1=O [DNQX, 6,7-dinitroquinoxaline-2,3Dione]",response duration before (t1-t5) vs after (t16-t20) drug wash-in,[2],no statistically significant difference; also recorded: no marked change
same,response amplitude before (t1-t5) vs after (t16-t20) drug wash-in,[2],no statistically significant difference; also recorded: no marked change
CC(=O)O[C@H]1C(=O)[C@@]2(C)[C@H]([C@H](OC(=O)c3ccccc3)[C@]3(O)C[C@H](OC(=O)[C@H](O)[C@@H](NC(=O)c4ccccc4)c4ccccc4)C(C)=C1C3(C)C)[C@]1(OC(C)=O)CO[C@@H]1C[C@@H]2O [Paclitaxel],Neurotoxic dose,[3],0.1 µM
"NC1=N[C@H](O)[C@H]2[C@H]3O[C@]4(O)O[C@@H]([C@@H](O)[C@@]2(N1)[C@@H]4O)[C@]3(O)CO [TTX, tetrodotoxin]",average response amplitude (peak-to-peak) after wash-in,[2],0.04 μV
same,effect on CAP / population response,[2],reversibly abolished; also recorded: completely abolished; also recorded: abolishment of population response
same,time to complete abolishment of responses,[2],≤ 2 min
CC[C@]1(O)C[C@H]2CN(CCc3c([nH]c4ccccc34)[C@@](C(=O)OC)(c3cc4c(cc3OC)N(C=O)[C@H]3[C@@](O)(C(=O)OC)[C@H](OC(C)=O)[C@]5(CC)C=CCN6CC[C@]43[C@@H]65)C2)C1 [Vincristine],Neurotoxic dose,[3],0.1 µM
NGF: nerve growth factor,direction of DRG neurite growth,DRG neurites,grow preferentially toward NGF
collagen,amount of myelin formation,"[1]; 25 days, addition of collagen I and III",increased
same,"volume of neuronal outgrowth, cultures with vs without collagen","[1]; 25 days, collagen-coated inserts, n=15-18 constructs",significantly higher volume; also recorded: significantly more neuronal growth
same,amount of MBP-positive myelin,"[1]; 25 days, presence of collagen, FIG. 17B",increased
same,amount of PO-positive myelin,"[1]; 25 days, presence of collagen, FIG. 18B",increased
B1,retinal ganglion cell axon extension,Retinal explants,Observable retinal ganglion cell axon extension
B2,retinal ganglion cell axon extension,Retinal explants,Observable retinal ganglion cell axon extension

# — patent publication US20170276668A1, “NEURAL MICROPHYSIOLOGICAL SYSTEMS AND METHODS OF USING THE SAME” (The Administrators of the Tulane Educational Fund, priority 2014, published 2017)
